Source: patent publication US10906915B2, “Substituted pyrazoloazepin-4-ones and their use as phosphodiesterase inhibitors” (LEO Pharma A/S, priority 2016, dated 2021)

molecular target: human PDE4D catalytic domain (UniProt no. Q08499) (Homo sapiens (Human), UniProt Q08499); assay: PDE4 assay (TR-FRET, FAM-cAMP cleavage); assay type: biochemical; conditions: read-out: PDE4 IC50 range
Procedure, shortened: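 Read-out is time-resolved FRET from Tb donor to FAM-AMP captured on trivalent-metal nanoparticles added to stop the reaction. Substrate was a mix of plain and FAM-labelled cAMP, cleaved by human PDE4D catalytic domain ([…]) with titrated compound; IC50 ranges (nM) versus controls.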

human PDE4D catalytic domain, sequence (Q08499 380-740 limits assumed): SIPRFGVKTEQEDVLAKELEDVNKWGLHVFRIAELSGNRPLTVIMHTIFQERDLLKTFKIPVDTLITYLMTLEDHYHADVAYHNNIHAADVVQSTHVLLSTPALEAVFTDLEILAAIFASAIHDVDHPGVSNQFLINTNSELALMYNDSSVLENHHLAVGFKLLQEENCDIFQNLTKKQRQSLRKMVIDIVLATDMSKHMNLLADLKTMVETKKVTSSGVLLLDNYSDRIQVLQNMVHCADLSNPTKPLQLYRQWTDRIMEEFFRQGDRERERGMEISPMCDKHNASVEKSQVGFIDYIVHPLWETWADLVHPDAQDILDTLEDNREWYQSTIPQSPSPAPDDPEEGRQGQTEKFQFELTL

SMILES | IC50
CCc1nn(CC(C)(C)COC(=O)c2cccc(Cl)c2)c2c1C(=O)NCC1(CCOCC1)C2 [Example 291, [3-(3-ethyl-4-oxo-spiro[6,8-dihydro-5H-pyrazolo[4,3-c]azepine-7,4′-tetrahydropyran]-1-yl)-2,2-dimethyl-propyl] 3-chlorobenzoate] | < 100 nM
CCc1nn(CC(C)(C)COC(=O)c2ccccc2Cl)c2c1C(=O)NCC1(CCOCC1)C2 [Example 292, [3-(3-ethyl-4-oxo-spiro[6,8-dihydro-5H-pyrazolo[4,3-c]azepine-7,4′-tetrahydropyran]-1-yl)-2,2-dimethyl-propyl] 2-chlorobenzoate] | < 100 nM
CCc1nn(CC(C)(C)COC(=O)c2cc(F)cc(F)c2)c2c1C(=O)NCC1(CCOCC1)C2 [Example 293, [3-(3-ethyl-4-oxo-spiro[6,8-dihydro-5H-pyrazolo[4,3-c]azepine-7,4′-tetrahydropyran]-1-yl)-2,2-dimethyl-propyl] 3,5-difluorobenzoate] | < 100 nM
CCc1nn(CC(C)(C)COC(=O)c2ccc(F)c(F)c2)c2c1C(=O)NCC1(CCOCC1)C2 [Example 294, [3-(3-ethyl-4-oxo-spiro[6,8-dihydro-5H-pyrazolo[4,3-c]azepine-7,4′-tetrahydropyran]-1-yl)-2,2-dimethyl-propyl] 3,4-difluorobenzoate] | < 100 nM
CCc1nn(CC(C)(C)COC(=O)c2ccc(C(C)=O)cc2)c2c1C(=O)NCC1(CCOCC1)C2 [Example 295, [3-(3-ethyl-4-oxo-spiro[6,8-dihydro-5H-pyrazolo[4,3-c]azepine-7,4′-tetrahydropyran]-1-yl)-2,2-dimethyl-propyl] 4-acetylbenzoate] | < 100 nM
CCc1nn(CC(C)(C)COC(=O)c2cccc(C(C)=O)c2)c2c1C(=O)NCC1(CCOCC1)C2 [Example 296, [3-(3-ethyl-4-oxo-spiro[6,8-dihydro-5H-pyrazolo[4,3-c]azepine-7,4′-tetrahydropyran]-1-yl)-2,2-dimethyl-propyl] 3-acetylbenzoate] | < 100 nM
CCc1nn(CC(C)(C)COC(=O)c2ccc(C#N)c(F)c2)c2c1C(=O)NCC1(CCOCC1)C2 [Example 297, [3-(3-ethyl-4-oxo-spiro[6,8-dihydro-5H-pyrazolo[4,3-c]azepine-7,4′-tetrahydropyran]-1-yl)-2,2-dimethyl-propyl] 4-cyano-3-fluoro-benzoate] | < 100 nM
CCc1nn(CC(C)(C)COC(=O)c2ccc(C#N)cc2F)c2c1C(=O)NCC1(CCOCC1)C2 [Example 298, [3-(3-ethyl-4-oxo-spiro[6,8-dihydro-5H-pyrazolo[4,3-c]azepine-7,4′-tetrahydropyran]-1-yl)-2,2-dimethyl-propyl] 4-cyano-2-fluoro-benzoate] | < 100 nM
CCOc1cccc(C(=O)OCC(C)(C)Cn2nc(CC)c3c2CC2(CCOCC2)CNC3=O)c1 [Example 299, [3-(3-ethyl-4-oxo-spiro[6,8-dihydro-5H-pyrazolo[4,3-c]azepine-7,4′-tetrahydropyran]-1-yl)-2,2-dimethyl-propyl] 3-ethoxybenzoate] | < 100 nM
CCc1nn(CC(C)(C)COC(=O)c2c(F)cccc2Cl)c2c1C(=O)NCC1(CCOCC1)C2 [Example 300, [3-(3-ethyl-4-oxo-spiro[6,8-dihydro-5H-pyrazolo[4,3-c]azepine-7,4′-tetrahydropyran]-1-yl)-2,2-dimethyl-propyl] 2-chloro-6-fluoro-benzoate] | < 100 nM
CCc1nn(CC(C)(C)COC(=O)c2ccc(F)cc2Cl)c2c1C(=O)NCC1(CCOCC1)C2 [Example 301, [3-(3-ethyl-4-oxo-spiro[6,8-dihydro-5H-pyrazolo[4,3-c]azepine-7,4′-tetrahydropyran]-1-yl)-2,2-dimethyl-propyl] 2-chloro-4-fluoro-benzoate] | < 100 nM
CCc1nn(CC(C)(C)COC(=O)c2cccc(C(F)(F)F)c2)c2c1C(=O)NCC1(CCOCC1)C2 [Example 302, [3-(3-ethyl-4-oxo-spiro[6,8-dihydro-5H-pyrazolo[4,3-c]azepine-7,4′-tetrahydropyran]-1-yl)-2,2-dimethyl-propyl] 3-(trifluoromethyl)benzoate] | < 100 nM
CCc1nn(CC(C)(C)COC(=O)c2ccccc2C(F)(F)F)c2c1C(=O)NCC1(CCOCC1)C2 [Example 303, [3-(3-ethyl-4-oxo-spiro[6,8-dihydro-5H-pyrazolo[4,3-c]azepine-7,4′-tetrahydropyran]-1-yl)-2,2-dimethyl-propyl] 2-(trifluoromethyl)benzoate] | < 100 nM
CCc1nn(CC(C)(C)COC(=O)c2ccc(C(F)(F)F)cc2)c2c1C(=O)NCC1(CCOCC1)C2 [Example 304, [3-(3-ethyl-4-oxo-spiro[6,8-dihydro-5H-pyrazolo[4,3-c]azepine-7,4′-tetrahydropyran]-1-yl)-2,2-dimethyl-propyl] 4-(trifluoromethyl)benzoate] | < 100 nM
CCc1nn(CC(C)(C)COC(=O)c2cccc(S(C)(=O)=O)c2)c2c1C(=O)NCC1(CCOCC1)C2 [Example 305, [3-(3-ethyl-4-oxo-spiro[6,8-dihydro-5H-pyrazolo[4,3-c]azepine-7,4′-tetrahydropyran]-1-yl)-2,2-dimethyl-propyl] 3-methylsulfonylbenzoate] | < 100 nM
CCc1nn(CC(C)(C)COC(=O)c2ccc(S(C)(=O)=O)cc2)c2c1C(=O)NCC1(CCOCC1)C2 [Example 306, [3-(3-ethyl-4-oxo-spiro[6,8-dihydro-5H-pyrazolo[4,3-c]azepine-7,4′-tetrahydropyran]-1-yl)-2,2-dimethyl-propyl] 4-methylsulfonylbenzoate] | < 100 nM
CCc1nn(CC(C)(C)COC(=O)c2ccccc2S(C)(=O)=O)c2c1C(=O)NCC1(CCOCC1)C2 [Example 307, [3-(3-ethyl-4-oxo-spiro[6,8-dihydro-5H-pyrazolo[4,3-c]azepine-7,4′-tetrahydropyran]-1-yl)-2,2-dimethyl-propyl] 2-methylsulfonylbenzoate] | < 100 nM
CCc1nn(CC(C)(C)COC(=O)c2cccc(S(N)(=O)=O)c2)c2c1C(=O)NCC1(CCOCC1)C2 [Example 308, [3-(3-ethyl-4-oxo-spiro[6,8-dihydro-5H-pyrazolo[4,3-c]azepine-7,4′-tetrahydropyran]-1-yl)-2,2-dimethyl-propyl] 3-sulfamoylbenzoate] | < 100 nM
CCc1nn(CC(C)(C)COC(=O)c2ccc(S(N)(=O)=O)cc2)c2c1C(=O)NCC1(CCOCC1)C2 [Example 309, [3-(3-ethyl-4-oxo-spiro[6,8-dihydro-5H-pyrazolo[4,3-c]azepine-7,4′-tetrahydropyran]-1-yl)-2,2-dimethyl-propyl] 4-sulfamoylbenzoate] | < 100 nM
CCc1nn(CC(C)(C)COC(=O)c2cc(F)cc(C(F)(F)F)c2)c2c1C(=O)NCC1(CCOCC1)C2 [Example 310, [3-(3-ethyl-4-oxo-spiro[6,8-dihydro-5H-pyrazolo[4,3-c]azepine-7,4′-tetrahydropyran]-1-yl)-2,2-dimethyl-propyl] 3-fluoro-5-(trifluoromethyl)benzoate] | < 100 nM
CCc1nn(CC(C)(C)COC(=O)c2cccc(S(=O)(=O)CC)c2)c2c1C(=O)NCC1(CCOCC1)C2 [Example 311, [3-(3-ethyl-4-oxo-spiro[6,8-dihydro-5H-pyrazolo[4,3-c]azepine-7,4′-tetrahydropyran]-1-yl)-2,2-dimethyl-propyl] 3-ethylsulfonylbenzoate] | < 100 nM
CCc1nn(CC(C)(C)COC(=O)c2ccc(S(=O)(=O)CC)cc2)c2c1C(=O)NCC1(CCOCC1)C2 [Example 312, [3-(3-ethyl-4-oxo-spiro[6,8-dihydro-5H-pyrazolo[4,3-c]azepine-7,4′-tetrahydropyran]-1-yl)-2,2-dimethyl-propyl] 4-ethylsulfonylbenzoate] | < 100 nM
CCc1nn(CC(C)(C)COC(=O)c2cccc(S(=O)(=O)NC)c2)c2c1C(=O)NCC1(CCOCC1)C2 [Example 313, [3-(3-ethyl-4-oxo-spiro[6,8-dihydro-5H-pyrazolo[4,3-c]azepine-7,4′-tetrahydropyran]-1-yl)-2,2-dimethyl-propyl] 3-(methylsulfamoyl)benzoate] | < 100 nM
CCc1nn(CC(C)(C)COC(=O)c2ccc(Cl)c(C(F)(F)F)c2)c2c1C(=O)NCC1(CCOCC1)C2 [Example 314, [3-(3-ethyl-4-oxo-spiro[6,8-dihydro-5H-pyrazolo[4,3-c]azepine-7,4′-tetrahydropyran]-1-yl)-2,2-dimethyl-propyl] 4-chloro-3-(trifluoromethyl)benzoate] | < 100 nM
CCc1nn(CC(C)(C)COC(=O)c2cc(C(F)(F)F)ccc2Cl)c2c1C(=O)NCC1(CCOCC1)C2 [Example 315, [3-(3-ethyl-4-oxo-spiro[6,8-dihydro-5H-pyrazolo[4,3-c]azepine-7,4′-tetrahydropyran]-1-yl)-2,2-dimethyl-propyl] 2-chloro-5-(trifluoromethyl)benzoate] | < 100 nM
CCc1nn(CC(C)(C)COC(=O)c2cccc(S(=O)(=O)C(C)C)c2)c2c1C(=O)NCC1(CCOCC1)C2 [Example 316, [3-(3-ethyl-4-oxo-spiro[6,8-dihydro-5H-pyrazolo[4,3-c]azepine-7,4′-tetrahydropyran]-1-yl)-2,2-dimethyl-propyl] 3-isopropylsulfonylbenzoate] | < 100 nM
CCc1nn(CC(C)(C)COC(=O)c2ccc(S(=O)(=O)C(C)C)cc2)c2c1C(=O)NCC1(CCOCC1)C2 [Example 317, [3-(3-ethyl-4-oxo-spiro[6,8-dihydro-5H-pyrazolo[4,3-c]azepine-7,4′-tetrahydropyran]-1-yl)-2,2-dimethyl-propyl] 4-isopropylsulfonylbenzoate] | < 100 nM
CCc1nn(CC(C)(C)COC(=O)c2ccc(S(=O)(=O)N(C)C)cc2)c2c1C(=O)NCC1(CCOCC1)C2 [Example 318, [3-(3-ethyl-4-oxo-spiro[6,8-dihydro-5H-pyrazolo[4,3-c]azepine-7,4′-tetrahydropyran]-1-yl)-2,2-dimethyl-propyl] 4-(dimethylsulfamoyl)benzoate] | < 100 nM
